Source: patent US20200078404A1, “COMBINATION OF A CELL THERAPY AND AN IMMUNOMODULATORY COMPOUND” (Juno Therapeutics, Inc., priority 2017, published 2020)

What was measured:
Type in all cases: cell-based, human
[1] = test system: anti-CD19 CAR T cells; test: Proliferation of anti-CD19 CAR T cells under sub-optimal anti-CD3 stimulation (CTV dilution); conditions: 5 μM lenalidomide, sub-optimal anti-CD3, 72 hours
Description: The CAR contained an anti-CD19 scFv, an Ig-derived spacer, a human CD28-derived transmembrane domain, a human 4-1BB-derived intracellular signaling domain and a human CD3 zeta-derived signaling domain. The nucleic acid construct encoding the CAR also included a truncated EGFR (tEGFR) sequence for use as a transduction marker, separated from the CAR sequence by a self-cleaving T2A sequence.

[2] = test system: anti-CD19 CAR-expressing T cells; test: Serial stimulation with K562.CD19: expansion (cell doublings); conditions: for cell doublings: 1000 nM lenalidomide
Description: Every 3-4 days (start of each new round), the cells were counted.

[3] = test system: anti-BCMA CAR+ T cells; test: Serial restimulation of anti-BCMA CAR+ T cells with irradiated MM1.S cells: expansion, cytokines, CD25
Experimental: Anti-BCMA CAR+ T cells generated as described above were plated in triplicate at 1×10^5 cells/well on 96-well plates.
Every 3-4 days (start of each new round), CAR T cells were counted. […] 8 rounds of stimulation were carried out during a 31 day culture period. For some rounds, at re-plating, cells were assessed for phenotypic markers via flow cytometry.
Culture conditions were reset every 3-4 days. Replating was maintained for 28 days or until the cell count was <50,000 cells. Experiments were performed in triplicate in 3 donors.

[4] = 0.1 μM lenalidomide, repeated stimulation

Nc1cccc2c1CN(C1CCC(=O)NC1=O)C2=O (stereo not shown) [lenalidomide, 3-(4-amino-1-oxo-1,3-dihydro-2H-isoindol-2-yl)piperidine-2,6-dione]
proliferation of CAR+ T cells [1]: enhanced proliferation of the CAR+ T cells | CAR+ T cell counts ([2]; 100 nM lenalidomide): increased CAR+ T cell counts for two out of three donors | cell doublings ([2]; 2.5:1 E:T ratio, later rounds): lower cell doublings were only observed in two of the donors | cell doublings ([2]; 10:1 E:T ratio, after 3-4 rounds, all donors): decreased cell doublings | projected cell counts ([3]; 0.1 μM lenalidomide, 3 donors, over 28 days): increased projected cell counts | CAR T CD25 expression (MFI) [3, 4]: significant increase in CAR T CD25 expression | IL-2, IFN-γ, and TNF-α production in the media [3, 4]: significant increase | CAR-T expansion ([3]; 0.1 μM lenalidomide, six donors): an increase or no change in CAR-T expansion | expansion of anti-BCMA CAR T cells ([3]; 0.01-10 μM lenalidomide, by day 14, vs no lenalidomide): increased expansion of anti-BCMA CAR T cells | expansion of cells expressing two different human anti-BCMA CARs ([3]; beginning between day 21 and day 28): increase expansion in both cell populations
